Measured values reported in a melting point compilation (Tetko et al.; mined from patent text by program, amines drawn as free bases though some values may be those of a salt).

| SMILES | melting point [°C] |
| --- | --- |
| N#Cc1c2ccccc2c(-c2cc(Br)c(O[C@@H](Cc3ccccc3)C(=O)O)c(Br)c2)c2c1sc1ccccc12 | 176 to 178 |
| CCOc1ccc(/C=C(\NC(=O)c2ccc(OCC(C)C)cc2)C(=O)NCCO)cc1 | 124 to 125 |
| Cc1oc(-c2ccccc2)nc1COc1ccc(Cn2cc(CCCC(=O)O)c(-c3ccccc3)n2)cc1 | 118 to 119 |
| CSC(=NS(=O)(=O)N1CCCCC1)N1CC(c2ccccc2)C(c2ccc(Cl)cc2)=N1 (configuration not stated) | 192 to 194 |
| Cc1ccc(C(=O)OCn2ncc(=O)[nH]c2=O)cc1 | 139 |
| O=Cc1cc(OCc2ccccc2)c(OCc2ccccc2)cc1Cl | 100 to 102 |
| Cn1cc(C(N)=O)c(-c2ccc([N+](=O)[O-])o2)n1 | 251 to 252 |
| CCCC[C@@H](NC(=O)OC(C)(C)C)C(=O)NCC(=O)OCc1ccccc1 | 85 to 86 |
| COc1ccc2c(c1)Oc1cscc1C(N1CCN(C)CC1)=N2 | 188 to 189 |
| FC(F)(F)c1ccccc1-c1nc(-c2ccccc2Cl)nn1CCCl | 66 to 68 |
| COP(=O)(CC(COc1cccc(C(F)(F)F)c1)=NNC(N)=O)OC | 132 to 133 |
| CC(=O)Nc1scc(C)c1C(=O)c1ccccc1 | 106 to 107 |
| CC1Nc2cccc3c(O)ccc(c23)S1(=O)=O (configuration not stated) | 245 to 246 |
| CC(c1cccnc1)n1nnc2cc3c(cc2c1=O)OC1CCCN1C3=O (configuration not stated) | 195 to 196 |
| CCCCCCCCCCCCCCCCSCCO | 50 |
| CC1C(=O)N(c2ccc(OCc3ccccc3)cc2)C(=S)N1c1ccccc1 (configuration not stated) | 155 |
| O=C(O)CCCc1cc2nc(Cl)ccc2n1S(=O)(=O)c1ccc2c(c1)OC(F)(F)O2 | 216 |
| COC(=O)c1ccc2c(c1)C(S(=O)(=O)c1ccccc1)CC(=O)CO2 (configuration not stated) | 128 to 130 |
| CN(C)CCCOc1cnc(-c2cccc(CO)c2)nc1 | 95 to 97 |
| COc1cccc(N2Sc3ccccc3CC2=O)c1OCc1ccccc1 | 151 to 153 |
| O=C(c1c(F)cccc1F)N1CN(c2ccccc2)CN(c2ccc(Cl)cc2)C1=O | 166 to 168 |
| CCOC(=O)c1cn(Cc2csnn2)c2cc(F)c(F)cc2c1=O | 234 to 237 |
| COc1cc2c(c3c1OC(C)(C)C3)C(c1ccc(=O)n(-c3cc(C)ccn3)c1)=NC(C)(C)C2 | 161 to 162 |
| CC(=O)NC[C@H]1CN(c2cc(F)c(N3CCN(C(=O)CO)CC3)c(F)c2)C(=O)O1 | 160 to 162 |
| CCCC(NOCC)=C1C(=O)CC(c2cc3ccccc3[nH]c2=O)CC1=O (configuration not stated) | 155 to 157 |

| SMILES | melting point [°C] |
| --- | --- |
| COc1cc(C(=O)CN2CCN(c3ccncc3)CC2)ccc1OCC(=O)O | 218 to 224 |
| CC(=O)NNc1ccc(NC(=S)N(C)C)cc1 | 187 to 189 |
| CCOCc1cc(C(C)(C)C)cc(COCC)c1SSc1c(COCC)cc(C(C)(C)C)cc1COCC | 62 to 63 |
| N#Cc1cc(NC(=O)c2cc3ccccc3s2)ccc1N1CCCCC1 | 219 to 245 |
| CS(=O)(=O)c1cc2[nH]c(=O)c(=O)n(C3CCCCC3)c2cc1-n1cccc1 | > 280 |
| CCOC(=O)NC(=S)CNc1ccc(C(=O)OC)c(S(=O)(=O)NC(=O)Nc2nc(OC)cc(OC)n2)c1 | 144 to 145 |
| CCCCCNc1c(C(=O)OCC)cnc2cn[nH]c12 | 153 to 155 |
| CCOC(=O)N[C@@H]1Cc2ccccc2[C@H]1Nc1ccccc1C(=O)OC (relative stereo) | 108 to 110 |
| CCCNc1ccc(C(=O)N2CCCC(CC(=O)NC(C)C)c3ccccc32)c(Cl)c1 (configuration not stated) | 140 to 143 |
| Cc1ccc(S(=O)(=O)N2[C@@H](c3noc(C)n3)CC[C@H]2c2ccc(F)cc2)cc1 (racemic) | 115 |
| O=C1c2c(O)ccc(O)c2C(=O)c2c(NCCN3CCCC3)ccc(NCCN3CCCC3)c21 | 193 to 196 |
| COc1cc(OC)cc(N2CCN(C(=O)N(C)c3cc4ccccc4cc3OC)CC2)c1 | 83 to 85 |
| N#Cc1ccc(C2=NOC3(CCN(C(=O)CCC(=O)O)CC3)C2)cc1 | 167 to 170 |
| COc1ccc(-c2ccc3c(C(=O)N(C)C)c(-c4ccccc4)ccc3c2)cc1 | 171 to 173 |
| C=CCN(CC=C)S(=O)(=O)c1ncn(C(=O)N(CC)CC)n1 | 49 to 51 |
| CN(C(=O)Nc1ccccc1CCc1cc(C(C)(C)C)c(O)c(C(C)(C)C)c1)C1CCN(Cc2ccc(F)cc2)CC1 | 177 to 178 |
| CCOC(=O)C1Cn2c(nc3c(cnn3C)c2=O)S1 (configuration not stated) | 159 |
| Nc1cccc(OCCCN2CCC(c3noc4cc(F)ccc34)CC2)c1 | 115 to 117 |
| Cc1cc(OCc2ccc(-c3ccccc3-c3nnn(C(c4ccccc4)(c4ccccc4)c4ccccc4)n3)cc2)c(CCl)c(C)n1 | 110 to 112 |
| CCCCc1nc(Cl)c(C(=O)O)n1Cc1ccc2oc(-c3ccccc3C#N)c(OC)c2c1 | 158 to 160 |
| c1cn2nc(N3CCCC3)c3c(c2n1)CCCC3 | 128 |
| CCOC(=O)c1ccc2c(N)cccc2c1 | 94 to 95 |
| COC(=O)c1c2ccccc2nc2c3ccccc3n(C)c12 | 127 |
| NS(=O)(=O)c1ccc(NC(=O)Nc2ccc(F)cc2)cc1 | 242 to 243 |
| O=C(O)c1ccc(Cn2ccc3cc(OCc4ccc5ccccc5n4)ccc32)cc1 | 212 to 216 |

| SMILES | melting point [°C] |
| --- | --- |
| CCC(=O)CCSc1cc(C(C)(C)C)c(O)c(C(C)(C)C)c1 | 76 to 79 |
| CN1Cc2cncn2-c2ccc(F)c(Cl)c2C1=O | 234 to 235 |
| c1ccc2c(c1)Cn1ncnc1-2 | 116 to 117 |
| CCc1ccc(Nc2c(C(=O)NN)ccc(F)c2F)c(F)c1 | 97.9 to 98.5 |
| CC(=O)SC(C(=O)c1ccccc1)C(C)C(=O)N1C(c2cccc(C(F)(F)F)c2)SC[C@H]1C(=O)O (some centres not stated) | 152 to 154 |
| O=C(O)[C@@H]1Cc2cc(Cl)cc(Cl)c2O[C@@H]1C(F)(F)F | 100 to 101 |
| CN(Cc1ccc(F)cc1)C1CCN(c2ccc(Cl)cc2)CC1 | 72 to 73 |
| CCOc1c(C(=O)c2ccccc2)cnc2c1cnn2Cc1ccco1 | 70 |
| COc1ccc2cc(C(O)C(C)N3CCC(NC(=O)c4ccccc4)CC3)ccc2c1 (configuration not stated) | 175 to 177 |
| CC1(OCC(F)(F)F)C=NC(c2cc(-c3ccc(S(C)(=O)=O)cc3)c(N3CCOCC3)s2)=CC1 (configuration not stated) | 156 |
| COc1ccc(-c2[nH]nc3c2C(=O)c2c(NC(=O)CN)cccc2-3)cc1 | > 300 |
| Cc1oc(-c2ccccc2)nc1COc1ccc2cc(CCc3nnn[nH]3)oc2c1 | 177 to 178 |
| O=C(O)c1ccn2c1C(C(=O)O)CCC2 (configuration not stated) | 236 to 237 |
| Cc1ncccc1NC(=NC#N)NC(NC(=O)Cc1ccc(F)cc1)C(C)(C)C (configuration not stated) | 166 to 167 |
| CC1CC(n2ccc(-c3ccc(F)cc3)c2-c2ccncc2)CCN1 (configuration not stated) | 173 to 175 |
| Cn1c(=O)c2c(ncn2CCN2CCC(c3c[nH]c4ccc(O)cc34)CC2)n(C)c1=O | 232 |
| O=C(O)COc1ccc2cc(CNC(=O)c3cnn(-c4ccc(Cl)cc4)c3C(F)(F)F)ccc2c1 | 189 to 191 |
| CC1CC(O)=CC2=CCC3C4CCC(O)C4(C)CCC3C21C (configuration not stated) | 111 to 112 |
| O=C(N[C@H]1CC[C@H](CCN2CCN(c3nccc4c3CCO4)CC2)CC1)c1ccc(Cl)cc1Cl | 204 |
| Nc1nnc(N2CCOCC2)s1 | 186 to 188 |
| COc1cccc2c1CC(C(=O)NCCOc1ccc(CC(=O)O)cc1)N2S(=O)(=O)c1ccc(-c2cccc(C(F)(F)F)c2)cc1 (configuration not stated) | 96 |
| CNC(=O)c1ccc(C=C2CC3CCC(C2)N3)cc1 | 164 to 166 |
| CCC(C)(Cc1c[nH]c2ccc(F)cc12)[N+](=O)[O-] (configuration not stated) | 71 to 72 |
| COC(CCC(N)=C(SC)S(C)=O)OC (configuration not stated) | 86 to 87 |
| N#Cc1ccccc1Nc1cc2c(cc1Nc1ccccc1C#N)C(=O)NC2=O | 279 to 280 |

| SMILES | melting point [°C] |
| --- | --- |
| COC(=O)c1ccc(-c2ccc(C#N)s2)nc1 | 164 to 166 |
| O=Cc1cccc2nc(-c3ccccc3)oc12 | 107 |
| C/C(Cl)=C/CCC(=O)C=P(c1ccccc1)(c1ccccc1)c1ccccc1 | 109 to 113 |
| CCOC(=O)C(C#N)=CC1C=C(OC)C(C(=O)OC)=C(OC)C1 (configuration not stated) | 119 to 121 |
| COc1cnc[nH]c1=O | 206 to 208 |
| Cc1cc2c(-c3ccccc3C)c(NC(=O)Nc3ccc(F)cc3F)c(=O)n(C)c2cc1C | 225 to 226 |
| Cc1ccc([N+](=O)[O-])c(NC=C2C(=O)OC(C)(C)OC2=O)c1 | 218 to 220 |
| O=C(CCN1CCN(c2ccnc3ccccc23)CC1)c1csc2ccccc12 | 134 to 136 |
| CCOCc1nc2c(N)nc3ccccc3c2n1CCCCCS(=O)(=O)NCc1ccc(OC)cc1 | 177 to 178 |
| COc1cc(OC)c2c(=O)[nH]c(-c3ccc(OCCO)c(-c4ccc(S(C)=O)cc4)n3)nc2c1 (configuration not stated) | 281 to 282 |
| CN(C)C=NS(=O)(=O)c1ccc(Br)cc1 | 141 to 143 |
| CCOC(=O)c1cn(-c2nnnn2C)c2nc(Cl)c(F)cc2c1=O | 210 to 215 |
| CN(C)C(=O)Nc1ccc(Oc2ccc3c(c2)OC(C)(C)CC3)cc1 | 137 to 138 |
| CC(=O)Nc1ncc(-c2ccncc2)cn1 | 261 to 264 |
| Cc1cccc(C(F)(F)C(F)(F)c2ccccc2)c1C | 110 to 112 |
| C/C(=C(\C#N)C(=S)/N=C/N(C)C)N1CCCN(c2ccc(F)c(C)c2)CC1 | 148 to 150 |
| CC[C@@H](NC(=O)N1CC(=O)NC[C@@H](Cc2cc(Cl)ccc2OC)C1=O)c1cccc(C(=O)O)c1 | 121 to 123 |
| Nc1nc2cc(OCc3ccccc3)ccc2c2c1ncn2CCOc1ccccc1 | 200 to 201 |
| FC(F)(F)c1cccc(N=C=S)c1 | 133 |
| CS(=O)(=O)CCCCC(c1cc(Cl)ccc1F)S(=O)(=O)c1ccc(Cl)cc1 (configuration not stated) | 116 to 117 |
| O=C(O)c1ccccc1Oc1ccc2c(c1)CC[C@H](CNC[C@H](O)COc1ccccc1)O2 | 188 |
| N#Cc1cccc2c1COc1ccc(OCc3ccc4ccc(Cl)cc4n3)cc1C2SCCC(=O)O (configuration not stated) | 193 to 195 |
